{"source": "paper PMC11539218", "about": "(Antimicrobial Agents and Chemotherapy, 2024)", "key": {"[1]": {"tested_on": "L. (L.) infantum promastigotes", "test": "Mitochondrial membrane electric potential (JC-1, flow cytometry)", "assay_type": "cell-based, Leishmania (L.) infantum", "conditions": "compound 1 169.2 µM, CCCP 10 µM; 2 and 4 h; JC-1 BL-2/BL-1 ratio; vs untreated", "method": "Promastigotes (2 × 10^6/well) were treated with compound 1 (169.2 µM) for 2 and 4 h, at 24°C. Then, JC-1 (10 µM) was added and the parasites were incubated for 20 min. Fluorescence was measured in a flow cytometer with an excitation wavelength of 488 nm and emission of 530 (BL-1) and 574 nm (BL-2). Mitochondrial membrane potential was established through the ratio of BL-2/BL-1 channels ([19]). Carbonyl cyanide m-chlorophenylhydrazone (CCCP) (10 µM) was employed as positive control and untreated parasites as negative control."}, "[2]": {"tested_on": "L. (L.) infantum promastigotes", "test": "DNA content / integrity (agarose gel electrophoresis)", "assay_type": "cell-based, Leishmania (L.) infantum", "conditions": "compound 1 169.2 µM, H2O2 10 mM; 24 h; 2% agarose gel", "method": "Promastigotes (1 × 10^7/well) were treated with compound 1 (169.2 μM) in M199 medium supplemented with 10% FBS and 0.25% hemin, pH 7.2, for 24 h at 24°C. Then, the genetic material was extracted using the QIAamp DNA Mini Kit, according to the manufacturer’s instructions. Total DNA quantification was performed in a NanoDrop ND-1000 spectrophotometer (260/280 nm). The purified genetic material (300 ng) was analyzed by electrophoresis for 1 h at […] in a 2% agarose gel with ethidium bromide (0.5 µg/mL). Visualization was performed under UV light in a MiniBIS Pro transilluminator (DNR Bio Imaging System) ([21]). H2O2 (10 mM) was employed as positive control and untreated parasites as negative control ([26])."}, "[3]": {"tested_on": "L. (L.) infantum promastigotes", "test": "Cell cycle (propidium iodide, flow cytometry)", "assay_type": "cell-based, Leishmania (L.) infantum", "conditions": "24 h; compound 1 169.2 µM, miltefosine 25 µM", "method": "Promastigotes (2 × 10^6/well) in exponential phase, were treated with compound 1 (169.2 µM) in M199 medium supplemented with 10% FBS and 0.25% hemin, pH 7.2, for 24 h at 24°C. In sequence, 70% (vol/vol) ice-cold ethanol was used for cell permeabilization overnight at −20°C. Then, the parasites were incubated with propidium iodide (10 µg/mL) and RNase A (20 µg/mL) for 30 min. […] Miltefosine (25 µM) was employed as positive control and untreated parasites as negative control ([25])."}, "[4]": {"parameters": "method as in PMID 34695563", "conditions": "plasma half-life; cited from earlier work"}, "L. (L.) donovani": {"tested_on": "L. (L.) donovani", "parameters": "method as in PMID 29061745", "conditions": "with subsequent increase in Ca2+ and collapse of mitochondrial membrane potential; cited from earlier work"}, "[5]": {"tested_on": "L. (L.) infantum promastigotes", "assay_type": "cell-based, Leishmania (L.) infantum", "conditions": "compound 1 169.2 µM, sodium azide 10 mM; 2 and 4 h; H2DCFDA; vs untreated", "method": "Promastigotes (2 × 10^6/well) were treated with compound 1 (169.2 µM) for 2 and 4 h, at 24°C. Later, H2DCFDA (5 µM) was added and the parasites were incubated for 15 min. Fluorescence was monitored in a spectrofluorometer with excitation and emission wavelengths of 485 and 535 nm, respectively ([19]). Sodium azide (10 mM) was employed as positive control and untreated parasites as negative control."}, "[6]": {"tested_on": "L. (L.) infantum promastigotes", "test": "Plasma membrane permeability (Sytox Green)", "assay_type": "cell-based, Leishmania (L.) infantum", "conditions": "compound 1 169.2 µM, Triton X-100 0.5%, up to 4 h", "method": "Promastigotes (2 × 10^6/well) were pretreated with Sytox Green (1 µM) for 15 min, at 24°C. Then, compound 1 (169.2 µM) was added and the fluorescence was monitored every 20 min up to 4 h in a spectrofluorometer, with excitation and emission wavelengths of 485 and 535 nm, respectively ([17]). Triton X-100 (0.5% vol/vol) was employed as positive control and untreated parasites as negative control ([18])."}, "[7]": {"tested_on": "Peritoneal macrophages infected with L. (L.) infantum", "test": "Cytokines in infected macrophages (ELISA)", "assay_type": "cell-based, BALB/c mice", "conditions": "positive control 5 µg/mL", "method": "L. (L.) infantum (MHOM/BR/1972/LD) promastigotes were maintained in M199 medium supplemented with 10% FBS and 0.25% hemin, pH 7.2 at 24°C. Amastigotes were isolated from golden hamsters (M. auratus) by differential centrifugation of infected spleens and the parasite’s number was determined according to Stauber ([14]). Peritoneal macrophages were obtained from the peritoneal cavity of BALB/c mice and maintained in RPMI-1640 medium supplemented with 10% FBS, pH 7.2 at 37°C.\nPeritoneal macrophages (1 × 10^6/well) were infected with L. (L.) infantum […] (10:1 amastigotes/macrophage) for 24 h, at 37°C with 5% CO2. Subsequently, compound 1 (10 and 60 µM) was added and the incubation followed the same conditions described above. Cell supernatants were collected after 48 and 72 h and the cytokines (IL-4, IL-10, IL-12, and INF-γ) were measured using the BD OptEIA Mouse ELISA set kits, according to the manufacturer’s instructions. Concanavalin A (5 µg/mL) was employed as positive control and untreated cells as negative control."}}, "data": [{"compound": "N#CC(C#N)=NNc1cccc(Cl)c1", "note": "[CCCP, Carbonyl cyanide m-chlorophenylhydrazone, reference compound]", "values": [{"measurement": "mitochondrial membrane electric potential (ΔΨm)", "setting": "[1]", "value": "Maximum depolarization"}]}, {"compound": "OO", "note": "[H2O2, reference compound]", "values": [{"measurement": "integrity of the genetic content (DNA)", "setting": "[2]", "value": "DNA fragmentation"}]}, {"compound": "CCCCCCCCCCCCCCCCOP(=O)([O-])OCC[N+](C)(C)C", "note": "[Miltefosine, reference compound]", "values": [{"measurement": "Proportion of parasites in different phases of the cell cycle (% ± SD): G0/G1", "setting": "[3]", "value": "53.8 ± 0.1", "unit": "%"}, {"measurement": "Proportion of parasites in different phases of the cell cycle (% ± SD): M/G2", "setting": "[3]", "value": "18.1 ± 0.4", "unit": "%"}, {"measurement": "Proportion of parasites in different phases of the cell cycle (% ± SD): S", "setting": "[3]", "value": "10.5 ± 0.3", "unit": "%"}, {"measurement": "Proportion of parasites in different phases of the cell cycle (% ± SD): Sub G0", "setting": "[3]", "value": "7.1 ± 0.6", "unit": "%"}, {"measurement": "T1/2", "setting": "[4]", "value": "approximately 126 h"}, {"measurement": "effect on acidocalcisomes", "setting": "L. (L.) donovani", "value": "alkalinization of acidocalcisomes"}]}, {"compound": "[N-]=[N+]=[N-].[Na+]", "note": "[sodium azide, Sodium azide, reference compound]", "values": [{"measurement": "ROS levels", "setting": "[5]", "value": "increased ROS production"}]}, {"compound": "Triton X-100 [reference compound]", "values": [{"measurement": "plasma membrane permeability", "setting": "[6]", "value": "significative permeabilization"}]}, {"compound": "concanavalin A [reference compound]", "values": [{"measurement": "production of cytokines (IL-4, IL-10, IL-12, INF-γ)", "setting": "[7]", "value": "tendency to increase"}]}]}
